# Laboratory results taken from patent US8637504B2, “Sulfur-containing heterocyclic derivative having beta secretase inhibitory activity” (Shionogi & Co., Ltd., priority 2008, dated 2014).
# Read-outs that look alike come from different tables or passages of the source.
# Legend:
# CYP1A2 = CYP1A2 (Homo sapiens (Human), UniProt P05177); assay: CYP inhibition test (CYP1A2); format: in vitro ADME; conditions: pooled human hepatic microsome, 7-ethoxyresorufin O-deethylation
# Experimental: (§1) After the centrifugation at 3000 rpm for 15 minutes, resorufin (CYP1A2 metabolite) in the supernatant was quantified by a fluorescent multilabel counter and tributamide hydroxide (CYP2CP metabolite), mephenyloin 4′ hydroxide (CYP2C19 metabolite), […] (CYP2D6 metabolite), and terfenadine alcohol (CYP3A4 metabolite) were quantified by LC/MS/MS. Addition of only DMSO being a solvent dissolving a drug to a reaction system was adopted as a control (100%), remaining activity (%) was calculated at each concentration of a test drug added as the solution and […] was calculated by reverse presumption by a logistic model using a concentration and an inhibition rate.
# CYP2C9 = CYP2C9 (Homo sapiens (Human), UniProt P11712); assay: CYP inhibition test (CYP2C9); format: in vitro ADME; conditions: pooled human hepatic microsome, tolbutamide methyl-hydroxylation
# Experimental: as §1
# CYP2C19 = CYP2C19 (Homo sapiens (Human), UniProt P33261); assay: CYP inhibition test (CYP2C19); format: in vitro ADME; conditions: pooled human hepatic microsome, mephenyloin 4′-hydroxylation
# Experimental: as §1
# CYP2D6 = CYP2D6 (Homo sapiens (Human), UniProt P10635); assay: CYP inhibition test (CYP2D6); format: in vitro ADME; conditions: pooled human hepatic microsome, dextromethorphan O-demethylation
# Experimental: as §1
# CYP3A4 [1] = target: T1, CYP3A4 (Homo sapiens (Human), UniProt P08684); assay: CYP inhibition test (CYP3A4); format: in vitro ADME; conditions: pooled human hepatic microsome, terfenedine hydroxylation
# Experimental: as §1
# Recombinant human BACE-1 = Recombinant human BACE-1 (Homo sapiens (Human), UniProt P56817); assay: Assay of β-secretase-inhibiting activity
# [2] = Metabolism stability test; format: in vitro ADME; conditions: human liver microsomes 0.5 mg protein/mL, NADPH, 37° C., 30 minutes
# Experimental: Using a commercially available pooled human hepatic microsomes, a test compound was reacted for a constant time, a remaining rate was calculated by comparing a reacted sample and an unreacted sample, thereby, a degree of metabolism in liver was assessed.
# A reaction was performed (oxidative reaction) at 37° C. for 0 minute or 30 minutes in the presence of 1 mmol/L NADPH in 0.2 mL of a buffer (50 mmol/L Tris-HCl pH 7.4, 150 mmol/L potassium chloride, 10 mmol/L magnesium chloride) containing 0.5 mg protein/mL of human liver microsomes. After the reaction, 50 μl, of the reaction solution was added to 100 μL of a methanol/acetonitrile=1/1 (v/v), mixed and centrifuged at 3000 rpm for 15 minutes. The test compound in the supernatant was quantified by LC/MS/MS, and a remaining amount of the test compound after the reaction was calculated, letting a compound amount at 0 minute reaction time to be 100%.
# Solubility test = format: physicochemical; conditions: pH 1.2, simulated gastric fluid, kinetic from dmso stock; JP-I medium, turbidity after 4 hours
# Experimental: A 2-fold dilution series (12 points) of a 10 mM solution of a test compound in DMSO was added to a medium (JP-I, JP-II) (2%), and solubility was assessed by 3 stages (High; >40 Medium; 3-40 μM, Low; <3 μM) from a turbidity after 4 hours (crystallization information).
# [3] = target: human ether-a-go-go related gene (hERG) channel (Homo sapiens (Human), UniProt Q12809); assay: hERG test; format: cell-based; conditions: HEK293 cells expressing hERG, patch clamp, applied 10 minutes
# Excerpt: For the purpose of assessing risk of an electrocardiogram QT interval prolongation, effects on delayed rectifier K+ current (IKr), which plays an important role in the ventricular repolarization process, was studied using HEK293 cells expressing human ether-a-go-go related gene (hERG) channel.
# After a cell was retained at a membrane potential of −80 mV by whole cell patch clamp method using an automated patch clamp system (PatchXpress 7000A, Axon Instruments Inc.), IKr induced by depolarization pulse stimulation at +50 mV for 2 seconds and, further, repolarization pulse stimulation at −50 mV for 2 seconds was recorded. […] From the recording IKr, an absolute value of the tail peak current was measured based on the current value at the resting membrane potential using an analysis software (DataXpress ver.1, Molecular Devices Corporation). Further, the % inhibition relative to the tail peak current before application of the test substance was calculated, and compared with the vehicle-applied group (0.1% dimethyl sulfoxide solution) to assess influence of the test substance on IKr.
# CYP3A4 [4] = target: T1, CYP3A4; assay: CYP3A4 fluorescent MBI test; format: in vitro ADME; conditions: pre-reaction time 0 or 30 minutes, substrate 7-BFC
# Experimental: The CYP3A4 fluorescent MBI test is a test of investigating enhancement of CYP3A4 inhibition of a compound by a metabolism reaction, and the test was performed using, as CYP3A4 enzyme expressed in Escherichia coli and employing, as an index, a reaction in which 7-benzyloxytrifluoromethylchmarin (7-BFC) is debenzylated by the CYP3A4 enzyme to produce a metabolite, 7-hydroxytrifluoromethylchmarin (HFC) emitting fluorescent light.
# The reaction conditions were as follows: substrate, 5.6 μmol/L 7-BFC; pre-reaction time, 0 or 30 minutes; reaction time, 15 minutes; reaction temperature, 25° C. […]
# An enzyme in a K-Pi buffer (pH 7.4) and a test drug solution as a pre-reaction solution were added to a 96-well plate at the composition of the pre-reaction, a part of it was transferred to another 96-well plate so that it was 1/10 diluted by a substrate in a K-Pi buffer, NADPH as a co-factor was added to initiate a reaction as an index (without preincubation) and, after a predetermined time of a reaction, acetonitrile/0.5 mol/L Tris (trishydroxyaminomethane)=4/1 was added to stop the reaction. […] For the plate on which each index reaction had been performed, a fluorescent value of 7-HFC which is a metabolite was measured with a fluorescent plate reader. […]
# [5] = Recombinant human BACE-1 7.4 nM, substrate peptide 18 nM, pH 5.0, 30° C. 3 hours
# Chain of CYP1A2 (P05177 whole entry): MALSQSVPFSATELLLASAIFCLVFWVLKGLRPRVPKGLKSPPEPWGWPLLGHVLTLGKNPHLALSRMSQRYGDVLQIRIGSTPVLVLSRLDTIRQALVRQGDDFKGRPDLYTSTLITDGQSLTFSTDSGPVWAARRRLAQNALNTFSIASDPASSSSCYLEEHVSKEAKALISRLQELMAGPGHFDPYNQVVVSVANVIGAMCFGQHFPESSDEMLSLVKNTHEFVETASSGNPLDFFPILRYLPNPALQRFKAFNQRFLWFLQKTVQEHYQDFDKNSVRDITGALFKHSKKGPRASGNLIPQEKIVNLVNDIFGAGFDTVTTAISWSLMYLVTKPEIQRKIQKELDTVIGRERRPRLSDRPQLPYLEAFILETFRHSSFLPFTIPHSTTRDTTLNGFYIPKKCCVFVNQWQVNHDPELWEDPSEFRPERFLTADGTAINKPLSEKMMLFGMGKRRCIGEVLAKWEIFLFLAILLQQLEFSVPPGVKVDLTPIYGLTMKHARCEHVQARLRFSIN
# T1 sequence (P08684 whole entry): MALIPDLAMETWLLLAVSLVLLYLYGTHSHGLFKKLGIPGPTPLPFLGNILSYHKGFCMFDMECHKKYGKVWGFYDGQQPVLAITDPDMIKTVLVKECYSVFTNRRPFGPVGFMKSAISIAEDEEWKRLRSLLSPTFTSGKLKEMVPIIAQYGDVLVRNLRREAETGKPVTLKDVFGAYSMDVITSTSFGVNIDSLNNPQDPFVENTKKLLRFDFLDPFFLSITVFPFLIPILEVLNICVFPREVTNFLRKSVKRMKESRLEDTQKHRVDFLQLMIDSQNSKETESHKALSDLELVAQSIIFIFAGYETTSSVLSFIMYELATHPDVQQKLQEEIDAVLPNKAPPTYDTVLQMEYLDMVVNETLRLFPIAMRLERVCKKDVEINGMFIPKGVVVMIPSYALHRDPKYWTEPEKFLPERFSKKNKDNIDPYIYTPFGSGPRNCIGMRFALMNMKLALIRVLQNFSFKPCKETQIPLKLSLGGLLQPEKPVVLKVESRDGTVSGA
# Chain of CYP2D6 (P10635 whole entry): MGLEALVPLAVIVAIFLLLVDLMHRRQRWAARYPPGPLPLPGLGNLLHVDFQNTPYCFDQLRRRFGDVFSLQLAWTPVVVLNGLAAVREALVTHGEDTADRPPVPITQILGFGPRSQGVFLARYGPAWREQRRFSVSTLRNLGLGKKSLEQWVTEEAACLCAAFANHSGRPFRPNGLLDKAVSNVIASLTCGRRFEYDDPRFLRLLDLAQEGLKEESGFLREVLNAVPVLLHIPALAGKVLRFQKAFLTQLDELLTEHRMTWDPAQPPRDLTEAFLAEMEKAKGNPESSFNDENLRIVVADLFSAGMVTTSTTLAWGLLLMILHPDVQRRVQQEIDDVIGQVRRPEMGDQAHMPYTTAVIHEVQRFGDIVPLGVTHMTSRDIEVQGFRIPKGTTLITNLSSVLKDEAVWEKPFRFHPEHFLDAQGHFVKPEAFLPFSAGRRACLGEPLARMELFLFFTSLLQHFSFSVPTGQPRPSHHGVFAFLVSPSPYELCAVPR
# Chain of CYP2C19 (P33261 whole entry): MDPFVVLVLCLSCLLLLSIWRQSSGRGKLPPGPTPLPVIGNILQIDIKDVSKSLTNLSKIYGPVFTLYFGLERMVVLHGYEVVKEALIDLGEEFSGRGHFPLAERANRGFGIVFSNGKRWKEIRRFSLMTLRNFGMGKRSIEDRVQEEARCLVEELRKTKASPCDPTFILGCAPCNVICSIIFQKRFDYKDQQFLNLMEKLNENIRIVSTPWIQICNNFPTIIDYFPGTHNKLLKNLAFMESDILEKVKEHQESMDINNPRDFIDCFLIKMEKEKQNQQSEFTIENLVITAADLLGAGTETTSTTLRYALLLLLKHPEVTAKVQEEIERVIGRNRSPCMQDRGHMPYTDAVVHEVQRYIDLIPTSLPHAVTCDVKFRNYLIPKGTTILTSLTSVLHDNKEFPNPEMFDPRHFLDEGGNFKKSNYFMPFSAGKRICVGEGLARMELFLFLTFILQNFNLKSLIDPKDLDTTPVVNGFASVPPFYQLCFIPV
# Chain of Recombinant human BACE-1 (P56817 46-501): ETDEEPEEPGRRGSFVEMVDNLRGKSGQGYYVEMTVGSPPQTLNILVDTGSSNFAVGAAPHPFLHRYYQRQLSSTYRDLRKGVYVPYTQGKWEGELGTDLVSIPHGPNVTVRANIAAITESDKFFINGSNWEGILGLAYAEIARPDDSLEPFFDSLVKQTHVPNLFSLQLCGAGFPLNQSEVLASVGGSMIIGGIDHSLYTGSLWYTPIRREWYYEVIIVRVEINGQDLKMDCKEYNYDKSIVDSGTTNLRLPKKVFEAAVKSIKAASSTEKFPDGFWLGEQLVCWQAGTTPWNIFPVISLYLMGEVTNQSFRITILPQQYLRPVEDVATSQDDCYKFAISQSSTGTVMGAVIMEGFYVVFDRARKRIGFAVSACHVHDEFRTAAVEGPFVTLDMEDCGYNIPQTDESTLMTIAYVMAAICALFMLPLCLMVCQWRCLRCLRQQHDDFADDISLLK
# Chain of CYP2C9 (P11712 whole entry): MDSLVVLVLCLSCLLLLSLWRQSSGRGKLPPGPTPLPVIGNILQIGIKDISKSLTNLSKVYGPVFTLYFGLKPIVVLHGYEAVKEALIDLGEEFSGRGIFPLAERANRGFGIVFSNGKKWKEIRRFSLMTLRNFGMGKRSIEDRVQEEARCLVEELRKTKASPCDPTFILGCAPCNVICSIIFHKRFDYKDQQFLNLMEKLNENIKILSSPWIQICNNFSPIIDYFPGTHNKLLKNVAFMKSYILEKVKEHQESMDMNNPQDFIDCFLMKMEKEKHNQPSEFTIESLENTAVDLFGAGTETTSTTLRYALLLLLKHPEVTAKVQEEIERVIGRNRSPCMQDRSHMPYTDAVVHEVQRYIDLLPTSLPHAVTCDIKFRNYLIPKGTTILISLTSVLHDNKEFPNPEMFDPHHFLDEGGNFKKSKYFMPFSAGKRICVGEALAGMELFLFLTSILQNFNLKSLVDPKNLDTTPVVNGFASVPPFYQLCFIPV
# Chain of human ether-a-go-go related gene (hERG) channel (Q12809 whole entry): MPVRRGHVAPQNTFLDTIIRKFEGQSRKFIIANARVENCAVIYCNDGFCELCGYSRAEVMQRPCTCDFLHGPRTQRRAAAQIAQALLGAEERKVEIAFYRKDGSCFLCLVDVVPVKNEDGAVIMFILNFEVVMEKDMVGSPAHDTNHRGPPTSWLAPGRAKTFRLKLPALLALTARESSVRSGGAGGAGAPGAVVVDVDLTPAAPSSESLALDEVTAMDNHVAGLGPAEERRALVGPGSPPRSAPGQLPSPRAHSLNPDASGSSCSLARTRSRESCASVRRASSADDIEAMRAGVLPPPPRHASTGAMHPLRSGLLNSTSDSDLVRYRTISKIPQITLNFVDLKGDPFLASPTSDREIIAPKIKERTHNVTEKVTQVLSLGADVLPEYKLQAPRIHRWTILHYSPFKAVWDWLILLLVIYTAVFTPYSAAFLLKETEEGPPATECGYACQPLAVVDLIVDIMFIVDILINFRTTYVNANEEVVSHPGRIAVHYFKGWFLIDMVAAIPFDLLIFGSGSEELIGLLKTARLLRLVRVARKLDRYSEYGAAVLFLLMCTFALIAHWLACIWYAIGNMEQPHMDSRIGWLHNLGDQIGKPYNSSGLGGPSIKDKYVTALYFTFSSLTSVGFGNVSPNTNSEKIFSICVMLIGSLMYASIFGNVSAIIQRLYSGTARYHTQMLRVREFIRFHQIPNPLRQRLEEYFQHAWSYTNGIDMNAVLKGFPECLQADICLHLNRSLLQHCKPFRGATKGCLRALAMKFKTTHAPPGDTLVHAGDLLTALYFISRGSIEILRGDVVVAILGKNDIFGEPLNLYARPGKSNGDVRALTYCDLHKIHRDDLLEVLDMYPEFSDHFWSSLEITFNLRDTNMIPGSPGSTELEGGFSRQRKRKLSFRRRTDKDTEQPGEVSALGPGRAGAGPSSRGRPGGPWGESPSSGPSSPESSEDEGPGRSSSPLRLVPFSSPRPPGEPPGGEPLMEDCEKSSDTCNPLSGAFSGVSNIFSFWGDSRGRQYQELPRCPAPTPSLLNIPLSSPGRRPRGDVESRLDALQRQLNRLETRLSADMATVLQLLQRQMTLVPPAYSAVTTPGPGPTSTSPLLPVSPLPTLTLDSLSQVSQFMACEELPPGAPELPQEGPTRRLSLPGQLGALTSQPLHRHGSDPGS
Structure (SMILES),IC50 (CYP1A2) [µM],IC50 (CYP2C9) [µM],IC50 (CYP2C19) [µM],IC50 (CYP2D6) [µM],IC50 (CYP3A4 [1]) [µM],IC50 (Recombinant human BACE-1; [5]) [µM],remaining amount of the test compound after the reaction [2] [%],also measured
Cc1cc(C(=O)Nc2ccc(F)c([C@]3(C)C=CSC(N)=N3)c2)n(C)n1 [Compound 35],> 20,> 20,> 20,> 20,> 20,0.096,,
C[C@@]1(c2cc(NC(=O)c3cnc(-c4ncco4)cn3)ccc2F)C=CSC(N)=N1 [Compound 38],,,,,,0.304,95,
C[C@@]1(c2cc(NC(=O)c3cc4n(n3)CCN4)ccc2F)C=CSC(N)=N1 [Compound 63],> 20,> 20,> 20,> 20,> 20,0.435,,
CC(C)(C)S(=O)(=O)Nc1cnc(C(=O)Nc2ccc(F)c([C@]3(C)C=CSC(N)=N3)c2)cn1 [Compound 68],> 20,> 20,> 20,> 20,> 20,,,
C[C@@]1(c2cc(NC(=O)c3cnc(-n4cncn4)cn3)ccc2F)C=CSC(N)=N1 [Compound 70],,,,,,0.036,94,solubility at 4 h (Solubility test): > 40 µM
CNC(=O)c1ccc(-c2ccc(F)c([C@]3(C)C=CSC(N)=N3)c2)cn1 [Compound 92],,,,,,,,% inhibition of tail peak current (IKr) [3]: 7.9%
C=C1C[C@@](C)(c2cc(NC(=O)c3cnc(OC)cn3)cnc2Cl)N=C(N)S1 [Compound 99],,,,,,0.014,,IC50 difference (with/without preincubation) (CYP3A4 [4]): < 3 µM
C=C1C[C@@](C)(c2cc(NC(=O)c3cnc(OC)cn3)cnc2C)N=C(N)S1 [Compound 102],,,,,,0.036,,% inhibition of tail peak current (IKr) [3]: 2.3%
C=C1C[C@@](C)(c2cncc(NC(=O)c3cnc(OC)cn3)c2)N=C(N)S1 [Compound 104],> 20,> 20,> 20,> 20,> 20,0.063,,
C=C1C[C@@](C)(c2cncc(NC(=O)c3ncc(C(F)(F)F)cc3Cl)c2)N=C(N)S1 [Compound 106],> 20,> 20,> 20,> 20,> 20,0.102,,
CC1=C[C@@](C)(c2cncc(NC(=O)c3ccc(C#N)cn3)c2)N=C(N)S1 [Compound 108],,,,,,,,IC50 difference (with/without preincubation) (CYP3A4 [4]): < 3 µM; IC50 (Recombinant human BACE-1): ≤ 1 µM
C[C@@]1(c2cccc(-c3cncc(C#N)c3)c2)CCSC(N)=N1 [Compound 212],,,,,,,95,
C[C@@]1(c2cccc(-c3ccc(F)nc3F)c2)CCSC(N)=N1 [Compound 213],,,,,,,98,
